Target: T1, MCRA (myosin-cross-reactive antigen; FAD-dependent fatty acid hydratase) (Bifidobacterium breve, UniProt F1CWI2)
T1 construct: 1878 bp gene), N-terminal 6x His tag, pET28 (pBBI2), E. coli BL21 Star, HisTrap purified, ~66 kDa on SDS-PAGE; primers begin at MYYSSGNYE
T1 sequence (F1CWI2 1-625): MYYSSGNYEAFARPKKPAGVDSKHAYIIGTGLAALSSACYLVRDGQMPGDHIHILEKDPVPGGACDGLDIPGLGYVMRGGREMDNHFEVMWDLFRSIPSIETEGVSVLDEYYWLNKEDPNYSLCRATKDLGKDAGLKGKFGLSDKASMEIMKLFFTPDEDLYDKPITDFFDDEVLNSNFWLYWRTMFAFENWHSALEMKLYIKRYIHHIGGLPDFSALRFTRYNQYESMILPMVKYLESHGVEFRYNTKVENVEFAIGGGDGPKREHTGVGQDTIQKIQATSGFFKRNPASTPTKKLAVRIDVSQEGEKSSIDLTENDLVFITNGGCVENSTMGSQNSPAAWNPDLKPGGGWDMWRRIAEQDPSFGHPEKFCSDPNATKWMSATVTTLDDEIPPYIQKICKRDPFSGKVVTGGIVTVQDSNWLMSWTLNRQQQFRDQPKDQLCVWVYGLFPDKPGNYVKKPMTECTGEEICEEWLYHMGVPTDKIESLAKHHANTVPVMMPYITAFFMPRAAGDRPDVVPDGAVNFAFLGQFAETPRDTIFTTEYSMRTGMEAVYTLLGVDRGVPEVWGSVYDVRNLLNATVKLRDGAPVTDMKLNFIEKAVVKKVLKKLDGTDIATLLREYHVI
Experiment: UV-Vis absorption spectrum of purified protein and of supernatant after heat denaturation
Assay type: binding
Conditions: non-covalent, co-purified; flavin-like maxima ~450 and 370 nm; FAD identity rests on spectrum and analogy to S. pyogenes MCRA (FMN also run as reference)

## Cc1cc2nc3c(=O)[nH]c(=O)nc-3n(C[C@H](O)[C@H](O)[C@H](O)COP(=O)(O)OP(=O)(O)OC[C@H]3O[C@@H](n4cnc5c(N)ncnc54)[C@H](O)[C@@H]3O)c2cc1C [FAD]
  UV-Vis absorption spectrum of purified protein and of supernatant after heat den: flavin cofactor is released in the solution upon protein denaturation by heat

From PMC3063827, “Myosin-cross-reactive antigen (MCRA) protein from Bifidobacterium breve is a FAD-dependent fatty acid hydratase which has a function in stress protection” (BMC Biochemistry, 2011)
